Assays:
FH-B cells = experiment: Analysis of microtubule features by immunofluorescence; format: cell-based, human
Experimental: Analysis of microtubule features by immunofluorescence: Because Y-27632 diminishes FQI1-induced cell compaction (FIGS. 10C and 10D) without affecting microtubule levels (FIGS. 9A and 9B), cells were pretreated with Y-27632 in order to maintain overall cellular shape, facilitating capture of structural or positional impact of FQI1 on microtubules. In addition, only cells with cell spreading areas larger than 1000 μm^2 were considered. Cells were seeded overnight in high n-dishes, treated as indicated in the figure legends, fixed with formaldehyde as described above, blocked in 5% BSA in PBS and stained overnight at 4° C. with anti-γ-tubulin (1:500, Abcam, ab11316) and anti-α-tubulin (1:500, Fisher Scientific, 62204). Samples were then incubated in goat anti-rabbit Cy5 (1:1000, Invitrogen, A10523), goat anti-mouse Alexa Fluor 546 (1:1000, Thermo Fisher Scientific, A11003), and Phalloidin-iFluor 488 Reagent. Hoechst 33342 and mounting medium were applied, before acquiring Z stack images at 60× magnification on an Olympus Fluoview 10i microscope.
Using ImageJ, binary Z projections of Phalloidin and Hoechst channel stacks were merged with Z projections with average intensity of the α-tubulin channels. The Phalloidin channel was used as the region of interest for measurement of “integrated density” of the total α-tubulin intensity, which was plotted into swarmplots.
To assess distribution of visible microtubule ends, the Hoechst, γ-tubulin, and α-tubulin stacks were converted into Z projections with maximum intensity. The Hoechst and γ-tubulin Z projections were thresholded and all channels were merged. A line was generated between the γ-tubulin signal and the center of the nucleus to identify the axis of cell movement; a line perpendicular to the first line and running through the center point of the nucleus divided the cell into posterior and anterior portions. Visible microtubule ends were counted using the Cell Counter plugin, excluding unattached microtubule fragments.

MC38 cells = experiment: Syngeneic MC38 xenograft model in C57BL/6 mice; format: in vivo
Excerpt: Syngeneic and allogeneic xenograft models: We used 8-12 weeks-old athymic female mice for the allogeneic xenograft model and C57BL/6 mice for a syngeneic xenograft model, as described previously^26,27. All the mice were obtained from The Jackson Laboratory and housed at Boston University Medical Center based on the approval from the Institutional Animal Care and Use Committee. Each mouse was implanted subcutaneously on the dorsal surface and was monitored for tumor growth as measured with a VWR Digital Caliper. The tumor volume was calculated twice a week using the equation: length×width×height.
The mice were randomly separated into two groups once tumor volumes reached 100 mm^3. The FQI2-34 was suspended in a mixture of ethanol and DMSO. The mixture was agitated until the compound had completely dissolved. This solution was further diluted in 20% PEG 400 and water to give a final concentration of 2 mg/ml. FQI2-34 or vehicle was injected intraperitoneally daily at 5 mg/kg for 5 days, followed by a break for 2 days. After 21 days, both groups of mice were sacrificed, and the tumors were harvested.
Cell culture and other reagents: HT-29 cells were obtained from ATCC and grown in the Roswell Park Memorial Institute (RPMI) medium supplemented with 10% FBS and penicillin and streptomycin. Cells were injected with the growth-factor poor Matrigel (Millipore, catalogue number DLW354263) using a 23-gauge needle for a total volume of 200 microliters. The MC38 cell line was obtained from ATCC and grown in RPMI medium supplemented with 10% FBS and penicillin and streptomycin.
IHC was performed on the paraffin-embedded tumors as described previously^26-28. The manufacturer's protocol was used along with reagents from the Abcam Mouse and Rabbit Specific HRP/DAB IHC Detection Kit—Micro-polymer (ab236466). Primary antibodies and their dilutions used to detect the respective proteins were: Axin2 (Abcam, #ab32197, 1:100), β-catenin (BD Biosciences, #610154, 1:100), LSF (BD Biosciences, #610818, 1:100), SOX9 (Abcam, #ab185230, 1:100), Ki-67 (Cell Signaling, #8D5, 1:100).
All images and quantification were performed using the Nikon Eclipse TE2000 Inverted Microscope with the color camera at the Boston University School of Medicine (BUSM) Imaging Core. Random high-power field (hpf) images of every tumor sample were obtained. For quantification the signal was converted to grayscale, and the number and intensity of pixels were analyzed as integrated density by using Fiji. The integrated density of all the images was normalized to its area. The images were processed in ImageJ (National Institutes of Health, Bethesda, Md.) to quantitate the expression of SOX-9, AXIN-2, and LSF. Regions of interest were drawn and the expression was measured using integrated density normalized to the surface area. The average normalized integrated image densities from multiple hpfs were used to perform the correlational analysis between expression levels of pairs of proteins.

LSF and β-catenin = target: T1, LSF and β-catenin (Homo sapiens, UniProt Q12800); experiment: Immunoprecipitation of β-catenin probed for LSF in CRC cells; format: cell-based; settings: 1 μM, 16 hours, HT-29 and HCT-116 cells
T1 construct: In both these cell lines, LSF co-immunoprecipitated with β-catenin; endogenous in cells; host or cells: HT-29 and HCT-116
T1 sequence (Q12800 1-502): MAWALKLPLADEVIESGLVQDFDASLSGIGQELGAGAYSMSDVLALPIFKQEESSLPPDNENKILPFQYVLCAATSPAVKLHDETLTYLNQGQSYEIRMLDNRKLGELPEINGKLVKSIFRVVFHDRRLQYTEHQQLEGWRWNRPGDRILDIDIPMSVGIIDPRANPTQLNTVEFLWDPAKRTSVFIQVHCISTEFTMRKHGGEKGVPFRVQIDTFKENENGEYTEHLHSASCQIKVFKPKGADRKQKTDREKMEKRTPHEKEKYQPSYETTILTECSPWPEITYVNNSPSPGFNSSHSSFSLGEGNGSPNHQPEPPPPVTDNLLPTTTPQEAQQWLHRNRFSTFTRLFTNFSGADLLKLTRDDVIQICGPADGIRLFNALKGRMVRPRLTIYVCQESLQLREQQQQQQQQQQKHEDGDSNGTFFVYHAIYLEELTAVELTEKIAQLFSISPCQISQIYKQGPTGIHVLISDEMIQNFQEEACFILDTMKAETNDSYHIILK
Excerpt: Immunoprecipitation: The CRC cells were harvested. Proteins of interest were immunoprecipitated using the indicated antibodies at 1:100 concentration. The eluents were resolved by SDS polyacrylamide gel electrophoresis and probed with the indicated antibodies. All the antibodies for immunoblot and immunoprecipitation were acquired from Cell Signaling and were used at the recommended concentrations.

[1] = xenografts, immunohistochemistry

| interaction of LSF and β-catenin (co-immunoprecipitation) (LSF and β-catenin) | Structure (SMILES) | anterior-posterior patterning of visible microtubule ends (FH-B cells; 4 μM FQI1) | overall α-tubulin intensity (FH-B cells; 4 μM FQI1, 30 minutes, Y-27632 pretreated) | increase in the number of individually discernible microtubule ends (FH-B cells; 4 μM FQI1, 30 minutes, vs vehicle) [fold] | tumor volumes, lower than controls (MC38 cells; day 14 and day 21) [fold] | CRC mass on H&E stain (MC38 cells; xenografts) | Ki-67 levels (MC38 cells; [1]) | reduction in AXIN2 expression levels (MC38 cells; [1]) [fold] | reduction in SOX9 expression levels (MC38 cells; [1]) [fold] | reduction in number of cells with nuclear β-catenin (MC38 cells; [1]) [fold] |
| --- | --- | --- | --- | --- | --- | --- | --- | --- | --- | --- |
|  | CCOc1ccccc1C1CC(=O)Nc2cc3c(cc21)OCO3 (stereo not shown) [FQI1, 8-(2-ethoxyphenyl)-7,8-dihydro-[1,3]dioxolo[4,5-g]quinolin-6(5H)-one] | largely unaffected | significant decrease in overall α-tubulin intensity | 2.7 |  |  |  |  |  |  |
| consistently reduced this interaction | CCOc1cc(N(C)C)ccc1-c1cc(=O)[nH]c2cc3c(cc12)OCO3 [FQI2-34, 8-(4-(dimethylamino)-2-ethoxyphenyl)-[1,3]dioxolo[4,5-g]quinolin-6(5H)-one] |  |  |  | ~2 | substantial reduction in CRC mass | suppressed | ~2 | ~2 | 2.3 |
